# From the supplement of paper PMC11451515
# System: SEM cells
# Assay: cell viability relative to DMSO control; higher = less cytotoxic
# Details: 48 h
# In short: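 In 1536-well plates, 5 μl of leukemia cells were seeded per well: 500 cells/well for NOMO1 or SEM and 1000 cells/well for P12-Ichikawa. Each line had first been adapted for at least four passages in each medium. Library compounds in DMSO were pin-dosed at 11 threefold concentrations between 47 μM and 0.79 nM, and CellTiter-Glo One luminescence was read after 48 h at 37°C. Viability is a per-plate percentage relative to DMSO wells, with cell-free wells as background.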
# [1] = RPMI 5 mM glucose + 10% FBS, 0.000781 µM
# [2] = RPMI 5 mM glucose + 10% FBS, 0.00234 µM
# [3] = RPMI 5 mM glucose + 10% FBS, 0.00702 µM
# [4] = RPMI 5 mM glucose + 10% FBS, 0.0211 µM
# [5] = RPMI 5 mM glucose + 10% FBS, 0.0632 µM
# [6] = RPMI 5 mM glucose + 10% FBS, 0.19 µM
# [7] = RPMI 5 mM glucose + 10% FBS, 0.569 µM
# [8] = RPMI 5 mM glucose + 10% FBS, 1.71 µM
# [9] = RPMI 5 mM glucose + 10% FBS, 5.12 µM
# [10] = RPMI 5 mM glucose + 10% FBS, 15.4 µM
# [11] = RPMI 5 mM glucose + 10% FBS, 46.1 µM
# [12] = RPMI 5 mM glucose + 10% dialyzed FBS, 0.000781 µM
# [13] = RPMI 5 mM glucose + 10% dialyzed FBS, 0.00234 µM
# [14] = RPMI 5 mM glucose + 10% dialyzed FBS, 0.00702 µM
# [15] = RPMI 5 mM glucose + 10% dialyzed FBS, 0.0211 µM
# [16] = RPMI 5 mM glucose + 10% dialyzed FBS, 0.0632 µM
# [17] = RPMI 5 mM glucose + 10% dialyzed FBS, 0.19 µM
# [18] = RPMI 5 mM glucose + 10% dialyzed FBS, 0.569 µM
# [19] = RPMI 5 mM glucose + 10% dialyzed FBS, 1.71 µM
# [20] = RPMI 5 mM glucose + 10% dialyzed FBS, 5.12 µM
# [21] = RPMI 5 mM glucose + 10% dialyzed FBS, 15.4 µM
# [22] = RPMI 5 mM glucose + 10% dialyzed FBS, 46.1 µM
# [23] = HPLM + 10% dialyzed FBS, 0.000781 µM
# [24] = HPLM + 10% dialyzed FBS, 0.00234 µM
# [25] = HPLM + 10% dialyzed FBS, 0.00702 µM
# [26] = HPLM + 10% dialyzed FBS, 0.0211 µM
# [27] = HPLM + 10% dialyzed FBS, 0.0632 µM
# [28] = HPLM + 10% dialyzed FBS, 0.19 µM
# [29] = HPLM + 10% dialyzed FBS, 0.569 µM
# [30] = HPLM + 10% dialyzed FBS, 1.71 µM
# [31] = HPLM + 10% dialyzed FBS, 5.12 µM
# [32] = HPLM + 10% dialyzed FBS, 15.4 µM
# [33] = HPLM + 10% dialyzed FBS, 46.1 µM
SMILES,cell viability [1] [%],cell viability [2] [%],cell viability [3] [%],cell viability [4] [%],cell viability [5] [%],cell viability [6] [%],cell viability [7] [%],cell viability [8] [%],cell viability [9] [%],cell viability [10] [%],cell viability [11] [%],cell viability [12] [%],cell viability [13] [%],cell viability [14] [%],cell viability [15] [%],cell viability [16] [%],cell viability [17] [%],cell viability [18] [%],cell viability [19] [%],cell viability [20] [%],cell viability [21] [%],cell viability [22] [%],cell viability [23] [%],cell viability [24] [%],cell viability [25] [%],cell viability [26] [%],cell viability [27] [%],cell viability [28] [%],cell viability [29] [%],cell viability [30] [%],cell viability [31] [%],cell viability [32] [%],cell viability [33] [%]
O=C(CCCCCCC(=O)Nc1ccc([C@H]2O[C@@H](CSc3nc(-c4ccccc4)c(-c4ccccc4)o3)C[C@@H](c3ccc(CO)cc3)O2)cc1)NO,109,124,128,134,121,112,115,114,87.4,8.6,7.11,113,117,135,135,124,133,130,116,77.6,9.58,7.49,,,,,,,,,,,
O=C(CCc1ccc(O)cc1)c1c(O)cc(O)cc1O,80.8,102,102,85.6,86.3,97.7,105,99.4,40.2,105,106,96.5,90.9,89.7,90,83.6,105,88.1,91,62.3,102,102,74,79.7,92,95.5,89.1,95.9,115,94.5,57,107,100
Cc1ccc(C(=O)Nc2cccc(C(F)(F)F)c2)cc1-c1ccc2nc(NCCN3CCOCC3)ncc2c1,105,113,112,125,116,114,110,103,41.6,15.7,7.56,109,101,94.5,97,124,92.8,117,97.3,35.8,15.9,6.55,115,118,118,122,107,109,114,101,51.3,31.6,8.49
N#C/C(=C\c1ccc(O)c(O)c1)C(=O)NCc1ccccc1,103,100,101,105,114,111,107,112,96.4,80.2,9.69,111,107,96.4,106,114,102,104,101,101,69,26.4,103,103,109,113,113,102,93.2,104,105,72.8,37.2
N[S+](=O)([O-])c1cc2c(cc1Cl)NC(C(Cl)Cl)N[S+]2(=O)[O-] (centres undefined),103,110,90.3,107,114,113,122,123,115,129,109,95.1,108,113,102,124,122,121,132,142,106,125,89,95.6,98.8,86.3,105,103,102,91.5,111,116,111
C=C1C(=O)[C@@]23C(CC[C@@H]1[C@H]2O)[C@@]12CO[C@]3(O)[C@@H](O)[C@@H]1C(C)(C)CC[C@@H]2O (some centres undefined),106,86.9,107,101,104,102,86.7,67.7,37,4.45,2.3,105,7.74,99.2,109,113,107,92,97.3,49.3,9.6,2.85,102,96.9,109,113,119,103,98.5,103,70,20.5,3.53
Cc1c(-c2cccc3c(CCCOc4cccc5ccccc45)c(C(=O)O)n(Cc4cccnc4)c23)c(COc2ccc(N3CCN([S+](=O)([O-])N(C)C)CC3)cc2)nn1C,100,108,86.2,129,111,128,112,114,102,95.5,54.8,107,99.1,80.5,83.2,100,91.5,109,96.5,77.1,70,43,92.3,99.5,85.1,85.2,104,82.8,83.5,97.6,81,79.2,48.3
O=C(O)CCCCC(CCSCc1ccccc1)SCc1ccccc1 (centres undefined),106,102,91.5,101,118,124,110,121,115,107,99.6,100,106,121,138,116,117,108,125,117,108,93.5,87.7,116,111,110,104,115,113,131,111,119,102
Cc1ccccc1C(OCCN(C)C)c1ccccc1 (centres undefined),105,108,128,115,98.9,109,124,121,107,103,99.4,99.3,109,116,120,124,125,122,130,121,115,114,102,95.2,106,101,105,119,120,115,117,117,99.1
CC(C)N(C[C@H]1O[C@@H](n2cnc3c(N)ncnc32)[C@H](O)[C@@H]1O)[C@H]1C[C@@H](CCc2nc3cc(C(C)(C)C)ccc3[nH]2)C1,104,124,131,112,115,128,102,36.3,19,21,5.01,86.3,100,105,88.2,92.8,103,113,100,47.6,49,4.49,85.1,87.1,101,90.5,82,95.7,96.6,100,82,85.4,4.22
N#Cc1ccc(Oc2ccc3c(c2)COB3O)cc1,105,108,112,92.3,122,114,115,133,120,129,26.9,115,127,119,85,126,107,120,129,97.3,124,38.4,111,122,111,104,124,114,126,114,117,105,46.4
CCN1C[C@H](C)[N]2C(=C(O)C3=C2\C(=N/N(CC4=CC=C(F)C(=C4)Cl)C3=O)C(=O)NC)C1=O,115,115,117,103,110,106,105,18,100,103,98.9,101,121,125,117,125,121,122,51.6,115,112,105,104,103,105,107,106,102,109,50.4,98.5,100,94
N[C@H]2CN(CC12CC1)c3c(F)cc4c(c3Cl)[N@@](C=C(C4=O)C(=O)O)C5C[C@H]5F (some centres undefined),107,126,112,119,103,136,73.2,113,103,74.6,95.4,71.1,83,92.4,83.8,92.2,92.5,75.6,98.6,91,50.1,78.7,90.7,93.2,89.9,88.9,92.2,86.4,84.3,84.7,90.5,60.6,84.6
CCn1c(-c2nonc2N)nc2c(C#CC(C)(C)O)ncc(OC[C@H]3CCCNC3)c21,104,96.6,107,94.1,75.7,99.2,96.4,64.9,77.7,60,14.8,85.8,85.2,95.8,75.7,68.6,97.1,90.7,53.9,62.8,43.6,14.1,78.7,83.1,87.2,86.4,75.2,82.7,76.9,66.2,70.3,43,10.5
C[C@]12Cc3cn[nH]c3C[C@@H]1CC[C@@H]1[C@@H]2CC[C@@]2(C)[C@H]1CC[C@]2(C)O,102,108,104,119,116,104,118,104,99.4,114,101,103,94.9,106,123,110,103,108,107,111,105,95.8,108,105,105,79.7,100,88.6,83.6,75.8,90.4,97.4,88.1
